Values after ≈ are worked out from the molar mass of the structure shown.
Key:
α-glucosidase = experiment: In vitro α-glucosidase inhibition assay (pNPG substrate); type: biochemical, Saccharomyces Cerevisiae
Description: The α-glucosidase inhibition assay was performed as described previously. In summary, the stock solution of the enzyme from Saccharomyces Cerevisiae (0.2 U/mL) was prepared in 0.05 M sodium phosphate buffer pH 6.8. […] After incubation, 10 µL of the substrate, p-nitrophenyl α-D-glucopyranoside (pNPG, 5 mM solution in 0.05 M phosphate buffer) was added to the aboveprepared mixture and incubated again under the same experimental conditions. The reaction was stopped with the addition of 0.1 M Na2CO3 and OD405 was taken by a 96-well ELISA reader. The experiment was performed in triplicate.

P. aeruginosa (DR) [1] = experiment: Antibiofilm assay (crystal violet); type: cell-based; conditions: Pseudomonas aeruginosa; 0.5 mg/mL; read-out: biofilm inhibition (anti-biofilm potency)
Description: (§1) The antibiofilm activity of the synthesised azo derivatives was assessed by microtitre plate-based crystal violet method[44] against respective bacterial strains i.e. gram-positive (S. aureus, S. aureus (DR)) and gram-negative (P. aeruginosa, P. aeruginosa (DR)). In brief, 10 µL bacterial suspension, 100 µL trypticase soy broth and 10 µL (10 mg/mL) of test compounds were added in the wells in duplicates and incubated at 37 °C overnight. Ampicillin and moxifloxacin were used as positive controls. After the aspiration of planktonic cells, the biofilm was fixed with 99% methanol. The wells were then washed with 0.1 M sterile PBS (pH = 6.9) thrice and air-dried. Then, 200 µL of crystal violet solution (2%) was added to all wells. After 15 min, the excess of the crystal violet dye was removed and the wells were washed again with PBS. Then, the cell-bound crystal violet was dissolved in 33% acetic acid. The biofilm growth was quantified in terms of OD575 nm using an ELISA plate reader and biofilm hydrolysis was calculated by % inhibition formula.

S. aureus (DS) [2] = experiment: Antibiofilm assay (crystal violet); type: cell-based; conditions: 0.5 mg/mL
Description: as §1

S. aureus (DR) [3] = experiment: Antibiofilm assay (crystal violet); type: cell-based; conditions: 0.5 mg/mL
Description: as §1

P. vulgaris = experiment: Antibacterial activity, minimum inhibitory concentration; type: cell-based; design: key: R: resistant; S: sensitive
Description: (§2) The prepared azo derivatives were screened for their antibacterial activity against six bacterial strains obtained from hospital isolates i.e. gram positive (S. aureus, S. aureus (DR)) and gram-negative (E. coli, P. aeruginosa, P. aeruginosa (DR), P. vulgaris). All the strains were confirmed by biochemical identification and drug susceptibility methods. The antibacterial evaluation was done by agar disc diffusion method[39]^,[40] and MIC was determined. In summary, a 48-h old inoculum having ∼0.48 OD600, of the above-mentioned bacterial strains was spread on the solidified trypticase soy agar media and Whatman no. 1 filter paper discs (5 mm in diameter) soaked with the title compounds (10 µL/disc of 10 mg/mL) were placed on the plates. Ampicillin and moxifloxacin were used as positive controls and DMSO as negative control respectively.

P. aeruginosa (DR) [4] = experiment: as above; type: cell-based; design: key: R: resistant; S: sensitive
Description: as §2

S. aureus (DS) [5] = experiment: as above; type: cell-based; design: key: R: resistant; S: sensitive
Description: as §2

P. aeruginosa (DS) = experiment: as above; type: cell-based; design: key: R: resistant; S: sensitive
Description: as §2

E. coli = experiment: as above; type: cell-based; design: key: R: resistant; S: sensitive
Description: as §2

S. aureus (DR) [6] = experiment: as above; type: cell-based; design: key: R: resistant; S: sensitive
Description: as §2

Question: With `Oc1ccc(N=Nc2cccnc2Cl)c2ccccc12` [TR-8, 4-((2-chloropyridin-3-yl)diazenyl)naphthalen-1-ol] as the compound, how does the “% Inhibition” value (α-glucosidase; 15.62 µg/mL) read?
Answer: 29%

Question: And the “% Inhibition” value (α-glucosidase; 31.2 µg/mL)?
Answer: 45%

Question: And the “% Inhibition” value (α-glucosidase; 125 µg/mL)?
Answer: 75%

Question: And the “% Inhibition” value (α-glucosidase; 250 µg/mL)?
Answer: 98%

Question: What about the IC50 (α-glucosidase; means ± SEM of triplicate) of the same compound?
Answer: 36.7 ± 3.1 µg/mL (≈ 129 µM)

Question: And the inhibition at 500 µg/mL (P. aeruginosa (DR) [1])?
Answer: 80%

Question: What about the biofilm inhibition (S. aureus (DS) [2]) of the same compound?
Answer: greater than 70%

Question: And the biofilm hydrolysis efficiency (S. aureus (DR) [3])?
Answer: drastically decreased

Question: What about the melting point of the same compound?
Answer: 170 to 175 °C

Question: And the “Minimum inhibitory concentration: sensitive/resistant” value (P. vulgaris; 125 µg/200 µL)?
Answer: R

Question: What about the “Minimum inhibitory concentration: sensitive/resistant” value (P. vulgaris; 250 µg/200 µL) of the same compound?
Answer: R

Question: And the “Minimum inhibitory concentration: sensitive/resistant” value (P. aeruginosa (DR) [4]; 125 µg/200 µL)?
Answer: R

Question: What about the “Minimum inhibitory concentration: sensitive/resistant” value (P. aeruginosa (DR) [4]; 250 µg/200 µL) of the same compound?
Answer: R

Question: What about the “Minimum inhibitory concentration: sensitive/resistant” value (S. aureus (DS) [5]; 125 µg/200 µL) of the same compound?
Answer: S

Question: And the “Minimum inhibitory concentration: sensitive/resistant” value (S. aureus (DS) [5]; 250 µg/200 µL)?
Answer: S

Question: And the “Minimum inhibitory concentration: sensitive/resistant” value (P. aeruginosa (DS); 125 µg/200 µL)?
Answer: R

Question: What about the “Minimum inhibitory concentration: sensitive/resistant” value (P. aeruginosa (DS); 250 µg/200 µL) of the same compound?
Answer: S

Question: What about the “Minimum inhibitory concentration: sensitive/resistant” value (E. coli; 125 µg/200 µL) of the same compound?
Answer: R

Question: What about the “Minimum inhibitory concentration: sensitive/resistant” value (E. coli; 250 µg/200 µL) of the same compound?
Answer: R

Question: What about the “Minimum inhibitory concentration: sensitive/resistant” value (S. aureus (DR) [6]; 125 µg/200 µL) of the same compound?
Answer: R

Question: What about the “Minimum inhibitory concentration: sensitive/resistant” value (S. aureus (DR) [6]; 250 µg/200 µL) of the same compound?
Answer: R

Source: paper PMC8274517, “Diaryl azo derivatives as anti-diabetic and antimicrobial agents: synthesis, in vitro, kinetic and docking studies” (Journal of Enzyme Inhibition and Medicinal Chemistry, 2021)
